The values below come from patent US20090239841A1, “Diaryl Ureas as CB1 Antagonists” (priority 2004, published 2009).

The IC50 is the concentration that inhibits the measured activity by half.

Where two headings read alike, the source gives them in different places.

This test addresses T1, hCB1 (Homo sapiens, UniProt P21554).
T1 construct: made in house; host or cells: Sf9 insect cells (baculovirus), P2 membranes
Description: Agonist-induced GTP binding (GTPγ35S) assay at CB1, Example 8. Format: biochemical. As to conditions: read-out: IC50. An outline of the steps:
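Membranes from Sf9 cells co-expressing hCB1 and heterotrimeric G-protein (10 μg protein) in Tris pH 7.4 buffer with 5 μM GDP. Test compounds (10^−10–10^−5 M) competed against 1 nM CP55,940 with […] GTPγ35S, 60 min at room temperature. Filter-bound radioactivity by scintillation, expressed as percent above basal.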

[1] abbreviates: Table II, IC50 at CB1, GTP binding with 1 nM CP55,940.
The mark [2] stands for this setting: Table I, IC50 at CB1, GTP binding with 1 nM CP55,940.
Where [3] appears, read: IC50 at CB1, determined as described in Example 8.

T1 sequence (P21554 whole entry): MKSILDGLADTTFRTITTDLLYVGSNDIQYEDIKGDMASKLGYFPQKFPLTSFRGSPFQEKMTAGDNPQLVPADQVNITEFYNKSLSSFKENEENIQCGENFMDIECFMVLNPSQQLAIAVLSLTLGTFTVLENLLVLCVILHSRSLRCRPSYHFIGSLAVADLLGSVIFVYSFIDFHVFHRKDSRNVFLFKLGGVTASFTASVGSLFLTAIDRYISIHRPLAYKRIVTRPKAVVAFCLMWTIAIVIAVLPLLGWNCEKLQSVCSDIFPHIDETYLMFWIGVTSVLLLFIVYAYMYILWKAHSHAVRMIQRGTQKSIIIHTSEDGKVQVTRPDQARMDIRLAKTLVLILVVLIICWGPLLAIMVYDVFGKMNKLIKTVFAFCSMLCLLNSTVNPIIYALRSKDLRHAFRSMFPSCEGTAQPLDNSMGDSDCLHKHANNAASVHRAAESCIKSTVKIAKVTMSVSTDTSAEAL

For the compound `Cc1ccc(NC(=O)Nc2cccc(-c3ccnc(C)n3)c2)cc1` [Compound 164, N-(4-methylphenyl)-N′-[3-(2-methylpyrimidin-4-yl)phenyl]urea], the IC50 under setting [1] is under 2000 nM.
As to `CCc1ccc(NC(=O)Nc2cccc(OC)c2)cc1` [Compound 57, N-(4-ethylphenyl)-N′-(3-methoxyphenyl)urea], the IC50 under setting [2] was under 2000 nM.
Turning to `CC(C)Oc1ccc(NC(=O)Nc2ccc(OC(F)(F)F)cc2)cc1` [Compound 538, 1-(4-isopropoxyphenyl)-3-[4-(trifluoromethoxy)phenyl]urea], the IC50 under setting [3] is under 2000 nM.
As for `CCc1ccc(NC(=O)Nc2cc(F)cc(F)c2)cc1` [Compound 657, 1-(3,5-difluorophenyl)-3-(4-ethylphenyl)urea], the IC50 under setting [3] is under 2000 nM.
The same measure, in the same setting: then `Cc1ccc(NC(=O)Nc2ccc(N3CCCCC3)cc2)cc1` [Compound 322, 1-(4-methylphenyl)-3-(4-piperidin-1-ylphenyl)urea], with under 2000 nM.
Consider `CCCOc1ccc(NC(=O)Nc2cccc(C(C)=O)c2)cc1` [Compound 274, N-(3-acetylphenyl)-N′-(4-propoxyphenyl)urea], for which the half-inhibitory concentration (IC50) under setting [1] was under 2000 nM.
For the compound `CC(C)Oc1ccc(NC(=O)Nc2ccc(C(C)C)cc2)cc1` [Compound 575, 1-(4-isopropoxyphenyl)-3-(4-isopropylphenyl)urea], under setting [3], the IC50 was under 2000 nM.
Still for that read-out and setting: the result for `COC(=O)c1cccc(NC(=O)Nc2ccc(OCC#N)cc2)c1` [Compound 716, methyl 3-[({[4-(cyanomethoxy)phenyl]amino}carbonyl)amino] benzoate] reads under 2000 nM.
On to `Cc1ccc(NC(=O)Nc2cccc(OC(F)F)c2)cc1` [Compound 218, N-[3-(difluoromethoxy)phenyl]-N′-(4-methylphenyl)urea], for which, under setting [1], the IC50 was under 2000 nM.
Regarding `CCc1ccc(NC(=O)Nc2ccc(F)c(C#N)c2)cc1` [Compound 152, N-(3-cyano-4-fluorophenyl)-N′-(4-ethylphenyl)urea], under setting [1], the IC50 is under 2000 nM.
Consider `CC(=O)c1ccc(NC(=O)Nc2ccc(F)cc2)cc1` [Compound 340, 1-(4-acetylphenyl)-3-(4-fluorophenyl)urea], for which the IC50 under setting [3] was under 2000 nM.
Take `CC(C)c1ccc(NC(=O)Nc2cccc(C#N)c2)cc1` [Compound 194, N-(3-cyanophenyl)-N′-(4-isopropylphenyl)urea]: the IC50 under setting [1] was under 2000 nM.
Regarding `CCOC(=O)c1ccc(NC(=O)Nc2ccc(OCC(C)O)cc2)cc1` (stereo not shown) [Compound 758, ethyl 4-[({[4-(2-hydroxypropoxy)phenyl]amino}carbonyl)amino] benzoate], the IC50 under setting [3] was under 2000 nM.
Turning to `CC(=O)c1ccc(NC(=O)Nc2ccc(OCC#N)cc2)cc1` [Compound 508, 1-(4-acetylphenyl)-3-[4-(cyanomethoxy)phenyl]urea], the IC50 under setting [3] is under 2000 nM.
As for `O=C(Nc1ccc(OC(F)F)cc1)Nc1cccc(-c2cnccn2)c1` [Compound 65, N-[4-(difluoromethoxy)phenyl]-N′-(3-pyrazin-2-ylphenyl)urea], the half-maximal inhibitory concentration (IC50) under setting [1] is under 2000 nM.
Regarding `CCC(=O)c1ccc(NC(=O)Nc2ccc(CC)cc2)cc1` [Compound 492, 1-(4-ethylphenyl)-3-(4-propionylphenyl)urea], the IC50 under setting [3] is under 2000 nM.
On to `CCc1ccc(NC(=O)Nc2ccc(S(C)(=O)=O)cc2)cc1` [Compound 501, 1-(4-ethylphenyl)-3-[4-(methylsulfonyl)phenyl]urea], for which the half-inhibitory concentration (IC50) under setting [3] was under 2000 nM.
For `CCn1nnc(-c2ccc(NC(=O)Nc3cccc(OC(F)F)c3)cc2)n1` [Compound 792, N-[3-(difluoromethoxy)phenyl]-N′-[4-(2-ethyl-2H-tetrazol-5-yl)phenyl]urea], the IC50 under setting [3] was under 2000 nM.
In the case of `COCc1ccc(NC(=O)Nc2ccc(C)cc2)cc1` [Compound 207, N-[4-(methoxymethyl)phenyl]-N′-(4-methylphenyl)urea], the IC50 under setting [1] is under 2000 nM.
Take `O=C(Nc1ccc(F)cc1)Nc1ccc(OC(F)F)cc1` [Compound 373, 1-[4-(difluoromethoxy)phenyl]-3-(4-fluorophenyl)urea]: under setting [3], the IC50 was under 2000 nM.
Turning to `CN1CCN(S(=O)(=O)c2cccc(NC(=O)Nc3cccc(OC(F)F)c3)c2)CC1` [Compound 788, N-[3-(difluoromethoxy)phenyl]-N′-{3-[(4-methyl-1-piperazinyl)sulfonyl]phenyl}urea], the IC50 under setting [3] is under 2000 nM.
With `COCc1ccc(NC(=O)Nc2cccc(OC)c2)cc1` [Compound 544, 1-[4-(methoxymethyl)phenyl]-3-(3-methoxyphenyl)urea], the IC50 under setting [3] was under 2000 nM.
`O=C(Nc1ccc(Cl)cc1)Nc1cccc(OC(F)F)c1` [Compound 256, N-(4-chlorophenyl)-N′-[3-(difluoromethoxy)phenyl]urea]: the concentration for half-maximal inhibition (IC50) under setting [1] was under 2000 nM.
As for `CC(=O)c1ccc(NC(=O)Nc2cccc(OC(F)F)c2)cc1` [Compound 286, N-(4-acetylphenyl)-N′-[3-(difluoromethoxy)phenyl]urea], under setting [1], the IC50 was under 2000 nM.
In the case of `CCc1ccc(NC(=O)Nc2ccc(OC(C)C)cc2)cc1` [Compound 403, 1-(4-ethylphenyl)-3-(4-isopropoxyphenyl)urea], the IC50 under setting [3] was under 2000 nM.
Still for that read-out and setting: then `CCc1cccc(NC(=O)Nc2ccc(C(=O)OC)cc2)c1` [Compound 494, methyl 4-({[(3-ethylphenyl)amino]carbonyl}amino)benzoate], with under 2000 nM; and `CCCOc1ccc(NC(=O)Nc2ccc(C(C)=O)cc2)cc1` [Compound 417, 1-(4-acetylphenyl)-3-(4-propoxyphenyl)urea], with under 2000 nM; and `CCOc1cccc(NC(=O)Nc2cccc(CC)c2)c1` [Compound 384, 1-(3-ethoxyphenyl)-3-(3-ethylphenyl)urea], with under 2000 nM.
In the case of `N#Cc1cccc(NC(=O)Nc2cccc(OC(F)F)c2)c1` [Compound 284, N-(3-cyanophenyl)-N′-[3-(difluoromethoxy)phenyl]urea], the IC50 under setting [1] is under 2000 nM.
As for `Cc1cccc(NC(=O)Nc2ccc(-n3cnc(Cl)c3Cl)cc2)c1` [Compound 165, N-{4-(4,5-dichloro-1H-imidazol-1-yl)phenyl]-N′-(3-methylphenyl)urea], the IC50 under setting [1] was under 2000 nM.
With `CCCOc1ccc(NC(=O)Nc2cccc(OC)c2)cc1` [Compound 546, 1-(3-methoxyphenyl)-3-(4-propoxyphenyl)urea], the IC50 under setting [3] is under 2000 nM.
For the compound `Cc1ccc(F)cc1NC(=O)Nc1cccc(OC(F)F)c1` [Compound 700, 1-[3-(difluoromethoxy)phenyl]-3-(5-fluoro-2-methylphenyl)urea], the IC50 under setting [3] is under 2000 nM.
Same read-out and setting: then `CCOC(=O)c1cccc(NC(=O)Nc2ccc(CC)cc2)c1` [Compound 646, ethyl 3-({[(4-ethylphenyl)amino]carbonyl}amino)benzoate], with under 2000 nM.
Take `COc1nc(-c2cccc(NC(=O)Nc3ccc(OC(F)F)cc3)c2)ncc1C(F)(F)F` [Compound 118, N-[4-(difluoromethoxy)phenyl]-N′-{3-[4-methoxy-5-(trifluoromethyl)pyrimidin-2-yl]phenyl}urea]: the IC50 under setting [1] is under 2000 nM.
As for `CC(=O)c1ccc(NC(=O)Nc2ccc(OC(C)C)cc2)cc1` [Compound 282, N-(4-acetylphenyl)-N′-(4-isopropoxyphenyl)urea], the IC50 under setting [1] was under 2000 nM.
For `N#Cc1ccc(NC(=O)Nc2ccc3c(c2)CCC3)cc1` [Compound 453, 1-(4-cyanophenyl)-3-(2,3-dihydro-1H-inden-5-yl)urea], the IC50 under setting [3] is under 2000 nM.
For the compound `CCOC(=O)c1ccc(NC(=O)Nc2cccc(CC)c2)cc1` [Compound 497, ethyl 4-({[(3-ethylphenyl)amino]carbonyl}amino)benzoate], under setting [3], the concentration for half-maximal inhibition (IC50) was under 2000 nM.
In the case of `CCc1cccc(NC(=O)Nc2cccc(OC(F)F)c2)c1` [Compound 253, N-[3-(difluoromethoxy)phenyl]-N′-(3-ethylphenyl)urea], the IC50 under setting [1] is under 2000 nM.
With `CCOc1ccc(NC(=O)Nc2ccc([N+](=O)[O-])cc2)cc1` [Compound 560, 1-(4-ethoxyphenyl)-3-(4-nitrophenyl)urea], the IC50 under setting [3] is under 2000 nM.
Take `CCOC(=O)c1cccc(NC(=O)Nc2cccc(OCC)c2)c1` [Compound 661, ethyl 3-({[(3-ethoxyphenyl)amino]carbonyl}amino)benzoate]: the IC50 under setting [3] is under 2000 nM.
With `Cc1cccc(NC(=O)Nc2cccc(OC(F)F)c2)c1` [Compound 217, N-[3-(difluoromethoxy)phenyl]-N′-(3-methylphenyl)urea], under setting [1], the IC50 was under 2000 nM.
With `CC(C)c1ccc(NC(=O)Nc2ccc(Cl)nc2)cc1` [Compound 630, 1-(6-chloropyridin-3-yl)-3-(4-isopropylphenyl)urea], the IC50 under setting [3] is under 2000 nM.
On the same count and under the same terms, the result for `N#CCc1ccc(NC(=O)Nc2cccc(F)c2)cc1` [Compound 461, 1-[4-(cyanomethyl)phenyl]-3-(3-fluorophenyl)urea] reads under 2000 nM.
Consider `CCCOc1ccc(NC(=O)Nc2ccc(F)cc2)cc1` [Compound 210, N-(4-fluorophenyl)-N′-(4-propoxyphenyl)urea], for which, under setting [1], the IC50 is under 2000 nM.
Same read-out and setting: the result for `CCc1ccc(NC(=O)Nc2cccc(CC)c2)cc1` [Compound 179, N-(3-ethylphenyl)-N′-(4-ethylphenyl)urea] reads under 2000 nM.
With `Cc1ccc(NC(=O)Nc2ccc(OC(F)F)cc2)cc1` [Compound 41, N-[4-(difluoromethoxy)phenyl]-N′-(4-methylphenyl)urea], the IC50 under setting [2] is under 2000 nM.
As to `CCOc1ccc(NC(=O)Nc2ccc(C#N)cc2)cc1` [Compound 411, 1-(4-cyanophenyl)-3-(4-ethoxyphenyl)urea], under setting [3], the IC50 was under 2000 nM.
Take `Cc1ccc(NC(=O)Nc2ccc(OCC(C)O)cc2)cc1F` (stereo not shown) [Compound 763, 1-(3-fluoro-4-methylphenyl)-3-[4-(2-hydroxypropoxy)phenyl]urea]: under setting [3], the IC50 was under 2000 nM.
On to `COc1cc(NC(=O)Nc2ccc(OC(F)F)cc2)cc(OC)c1` [Compound 91, N-[4-(difluoromethoxy)phenyl]-N′-(3,5-dimethoxyphenyl)urea], for which, under setting [1], the IC50 is under 2000 nM.
